Data from PMC3534310, “Peptide-Modulated Activity Enhancement of Acidic Protease Cathepsin E at Neutral pH” (International Journal of Peptides, 2012).
Each block holds one molecule with its values, some of them ahead of it. Peptide text beside a SMILES is read from it.

Key:
cathepsin E [1] = target: T1, cathepsin E (Rattus norvegicus, UniProt P16228); assay: Cathepsin E protease activity assay (fluorogenic substrate, neutral pH); type: biochemical; conditions: 20 nM cathepsin E + 20 nM peptide; for Activity (%), value in parentheses: Table 2, value in parentheses
T1 construct: Cathepsin E was isolated from rat spleens as previously described; from tissue; host or cells: rat spleen
T1 sequence (P16228 59-398): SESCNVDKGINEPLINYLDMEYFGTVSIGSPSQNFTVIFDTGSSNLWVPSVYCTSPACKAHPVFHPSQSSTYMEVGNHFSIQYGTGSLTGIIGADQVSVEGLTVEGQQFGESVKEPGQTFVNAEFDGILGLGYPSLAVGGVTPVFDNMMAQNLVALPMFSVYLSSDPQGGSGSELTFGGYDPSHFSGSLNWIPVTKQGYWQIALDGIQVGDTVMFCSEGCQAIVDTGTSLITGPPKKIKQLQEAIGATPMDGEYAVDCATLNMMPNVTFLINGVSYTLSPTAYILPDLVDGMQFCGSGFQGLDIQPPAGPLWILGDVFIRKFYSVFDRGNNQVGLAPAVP
Procedure: (§1) Cathepsin E was isolated from rat spleens as previously described. The fluorogenic substrate for cathepsin E at neutral pH (pH 7.4) was the same as previously reported. The fluorogenic substrate (10 mM) was prepared by dissolving in 100% DMSO and diluting in reaction buffer immediately before use.
Activation of cathepsin E by the selected peptides was determined as previously described. The selected peptides were prepared by in vitro translation or chemical synthesis. A solution containing 20 nM cathepsin E was pre incubated with 20 nM of selected peptides in Selection buffer (50 mM Tris-HCl, 100 mM NaCl, pH 7.4) at 25°C for 10 min. Next, the fluorogenic substrate was added (5 μM) and the mixture was incubated at 37°C for 1 h for the enzyme reaction. The fluorescent reaction product was monitored at 440 nm (excitation at 340 nm) using Infinite 200 (TECAN, Japan). The percent of cathepsin E activation (A) was calculated by: (1) A = 100×(Sf−Bf)/(Cf−Bf) [% activation], where S f was the fluorescence intensity of the cathepsin E reaction in the presence of a selected peptide, C f was the fluorescence intensity of the control in the absence of a selected peptide, and B f was background fluorescence of the solution containing the fluorogenic substrate only.

cathepsin E [2] = target: T1, cathepsin E; assay: Affinity determination by SPR (Biacore2000); type: binding; conditions: cathepsin E immobilized on CM5 chip, peptide 10-40 nM, running buffer pH 7.4, 1:1 Langmuir fit
Procedure: as §1
The dissociation constant (K d) of each selected peptide with cathepsin E was determined by the SPR method using a Biacore2000 (GE Healthcare, UK). Cathepsin E was immobilized on a CM5 Biacore sensor chip (GE Healthcare, UK) by the general amine coupling method. A small quantity of acetate buffer (50 mM sodium acetate, 100 mM NaCl, pH 4.5) containing cathepsin E (150 μg/mL) was injected into the flow cell for the sample lane. The reference lane was prepared similarly but without cathepsin E. Different concentrations (10, 20, 30, and 40 nM) of the selected peptide candidates, T4 and T11 were injected into both lanes at a flow rate of 20 ul/min to measure the interaction between cathepsin E and each peptide candidate. For all experiments, a neutral pH buffer (50 mM Tris-HCl, 100 mM NaCl, pH 7.4) was used as the running buffer and a solution of 50 mM NaOH was used to remove the peptides. The resulting sensorgram curves were fit to a 1 : 1 Langmuir binding model, and the K d values were calculated using BIA evaluation software (GE Healthcare, UK).

HeLa cells = assay: HeLa cell death assay (Cell Counting Kit-F viability, Annexin V-Cy3 apoptosis); type: cell-based
Procedure: HeLa cells were used for an in vitro cell-based bioassay. Approximately 10,000 HeLa cells were seeded into the wells of a 96-well culture plate (Corning, USA) containing 100 uL of DMEM medium supplemented with 10% FBS and 2% penicillin-streptomycin and incubated overnight at 37°C under 5% CO2. The cells were treated with cathepsin E (77 nM) alone or together with two different concentrations (770 nM, 7.7 μM) of the selected peptide T11 in 100 μL of serum-free Opti-MEM at 37°C for 20 h. After incubation, viable cells were determined with a Cell Counting Kit-F (Dojindo Molecular Technologies, Japan) according to the manufacturer's protocol. Viable cells were identified by their fluorescent emissions intensity using an Infinite 200 (TECAN, Japan) with excitation at 490 nm and emission at 515 nm. To detect apoptotic cells, cells were treated with Annexin V-Cy3 (BioVision, USA) following the manufacturer's protocol. Apoptotic cells were detected by their fluorescent emissions with excitation at 543 nm and emission at 570 nm. To detect caspase-3/7 activity induced by cathepsin E, an Apo-ONE Homogeneous Caspase-3/7 Assay kit (Promega, USA) was used according to the manufacturer's protocol. Activity was detected by fluorescent emissions with excitation at 485 nm and emission at 530 nm. […]

[3] = tested on: caspase-3/7 activity in HeLa cells; assay: Apo-ONE Homogeneous Caspase-3/7 assay in HeLa cells; type: cell-based; conditions: for Caspase-3/7 activity: three independent experiments
Procedure: HeLa cells were used for an in vitro cell-based bioassay. Approximately 10,000 HeLa cells were seeded into the wells of a 96-well culture plate (Corning, USA) containing 100 uL of DMEM medium supplemented with 10% FBS and 2% penicillin-streptomycin and incubated overnight at 37°C under 5% CO2. […] After incubation, viable cells were determined with a Cell Counting Kit-F (Dojindo Molecular Technologies, Japan) according to the manufacturer's protocol. Viable cells were identified by their fluorescent emissions intensity using an Infinite 200 (TECAN, Japan) with excitation at 490 nm and emission at 515 nm. To detect apoptotic cells, cells were treated with Annexin V-Cy3 (BioVision, USA) following the manufacturer's protocol. Apoptotic cells were detected by their fluorescent emissions with excitation at 543 nm and emission at 570 nm. To detect caspase-3/7 activity induced by cathepsin E, an Apo-ONE Homogeneous Caspase-3/7 Assay kit (Promega, USA) was used according to the manufacturer's protocol. Activity was detected by fluorescent emissions with excitation at 485 nm and emission at 530 nm. The cathepsin E and selected peptide concentrations used for apoptosis and caspase assays were the same as those used for cell viability assays.

peptide T4 = target: T2, peptide T4; assay: SPR
T2 chain: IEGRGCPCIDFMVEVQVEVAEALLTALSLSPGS

[4] = Table 1, cathepsin E activity alone = 100%, pH 7.4, pre-incubation 25°C 10 min, 5 μM substrate, 37°C 1 h, peptide by in vitro translation (italics) or chemical synthesis
[5] = Table 2, value outside parentheses, pH 7.4, 37°C 1 h, peptide by in vitro translation (italic) or chemical synthesis
[6] = pH 7.4, 37°C 1 h, peptide by in vitro translation (italic) or chemical synthesis

Molecule: PGIKIIIIG [Peptide S4]
Activity (%) (cathepsin E [1]; [4]): 151%

Molecule: SGIKVGCDPPSCG [Peptide S9]
Activity (%) (cathepsin E [1]; [4]): 140%

Molecule: IGCEERSFPNIIIIIG [Peptide S8]
Activity (%) (cathepsin E [1]; [4]): 168%

Molecule: SPIISHIVGCDPPSCG [Peptide S7]
Activity (%) (cathepsin E [1]; [4]): 160%

Molecule: GSPCIGII [Peptide S2]
Activity (%) (cathepsin E [1]; [4]): 133%

Molecule: PGIKPPPCIIIIG [Peptide S10]
Activity (%) (cathepsin E [1]; [4]): 145%

Molecule: IEGRVGCDFMYVG [Peptide S1]
Activity (%) (cathepsin E [1]; [4]): 130%

B1: Cathepsin E (protein)
chain: T1 sequence (P16228 59-398)
Caspase-3/7 activity ([3]; 77 nM cathepsin E alone, 24 h): 155%
Kd (peptide T4): 2 nM

Further lines, with some results ahead:

Activity (%) (cathepsin E [1]; [5]): 118%
Molecule: SDDKSTTLVEVQVEVAEELWRHYHYLLHG [Peptide T6, peptide selected from the paired peptide (third) library]

Activity (%) (cathepsin E [1]; [5]): 111%
Molecule: SYKDSCIGGRGSGGGPGGIPGRIGYIG [Peptide T7, peptide selected from the paired peptide (third) library]

Activity (%), value in parentheses (cathepsin E [1]; [6]): 122%
Kd (cathepsin E [2]; read-out: dissociation constant (Kd) with cathepsin E): 2 nM
Molecule: CC[C@H](C)[C@H](N)C(=O)N[C@@H](CCC(=O)O)C(=O)NCC(=O)N[C@@H](CCCNC(=N)N)C(=O)NCC(=O)N[C@@H](CS)C(=O)N1CCC[C@H]1C(=O)N[C@@H](CS)C(=O)N[C@H](C(=O)N[C@@H](CC(=O)O)C(=O)N[C@@H](Cc1ccccc1)C(=O)N[C@@H](CCSC)C(=O)N[C@H](C(=O)N[C@@H](CCC(=O)O)C(=O)N[C@H](C(=O)N[C@@H](CCC(N)=O)C(=O)N[C@H](C(=O)N[C@@H](CCC(=O)O)C(=O)N[C@H](C(=O)N[C@@H](C)C(=O)N[C@@H](CCC(=O)O)C(=O)N[C@@H](C)C(=O)N[C@@H](CC(C)C)C(=O)N[C@@H](CC(C)C)C(=O)N[C@H](C(=O)N[C@@H](C)C(=O)N[C@@H](CC(C)C)C(=O)N[C@@H](CO)C(=O)N[C@@H](CC(C)C)C(=O)N[C@@H](CO)C(=O)N1CCC[C@H]1C(=O)NCC(=O)N[C@@H](CO)C(=O)O)[C@@H](C)O)C(C)C)C(C)C)C(C)C)C(C)C)[C@@H](C)CC [Peptide T4] (H-IEGRGCPCIDFMVEVQVEVAEALLTALSLSPGS-OH)

Activity (%), value in parentheses (cathepsin E [1]; [6]): 138%
dissociation constant (Kd) with cathepsin E (cathepsin E [2]): too weak to be determined
Molecule: IEGRLLSGGAGACSVRTVDDSFDCG [Peptide T11, paired peptide selected from the third library; chemically synthesized, more than 95% purity]
percentage of dying cells (HeLa cells; 77 nM cathepsin E with T11 (770 nM, 7.7 μM) versus without T11, 20 h (Figures 3a, 3b)): significantly higher
effect on cells (HeLa cells; peptide alone (without cathepsin E)): no effect
Caspase-3/7 activity ([3]; 77 nM cathepsin E + 7.7 μM peptide T11, 24 h): 188%
Caspase-3/7 activation ([3]; T11 added without cathepsin E): not observed
